Source: PubChem BioAssay AID624372 (Broad Institute, 2012)
Records with an inconclusive call do not appear. Calls of active or inactive are those of the source.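 Rule for the calls: active = fitted curve reaches -35% activity change below twice the top valid dose, with every replicate test called active; inconclusive = replicate tests disagree on the call; inactive = every replicate test called inactive.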

System: HEK293T viability, CellTiter-Glo ATP luminescence, 48 h
Experiment: HEK293T cell viability, dose response, counter-screen for EBV LMP1 inhibitor project, CellTiter-Glo luminescence, dry powder (AID 624372)
Details: not given

| Compound | AC35 [µM] |
| --- | --- |
| COCCCNC(=O)C(C)Sc1nnc2c3cc(C)ccc3n(Cc3ccccc3F)c2n1 (centres undefined) | 56 |
| O=c1[nH]c(=O)n([C@H]2C[C@H](O)[C@@H](CO)O2)cc1C(F)(F)F | 27.4 |
| C/C(=N\NC(=S)N1CCCC1)c1ccccn1 | 11 |
| C/C(=N\NC(=S)Nc1cccc(Cl)c1)c1ccccn1 | 16.2 |
| C/C(=N\NC(=S)N1CCCCC1)c1ccccn1 | 10.9 |
| CCC(Sc1nnc2c3ccccc3n(Cc3ccc(Br)cc3)c2n1)C(=O)NCCCN1CCOCC1 (centres undefined) | 21.2 |
| C/C(=N\NC(=S)N1CC2CCC(CC2)C1)c1cccc(C)n1 | 2.02 |
| C=C1C[C@]23C[C@@]1(O)CC[C@@H]2c1cccc(C)c1[C@@H]3C(=O)O | 7.6 |
| COc1ccc(NC(=O)c2ccc(OC(C)C(=O)O)cc2)cc1Cl (centres undefined) | 37.6 |
| C/C(=N\NC(=S)N1CCN(c2ccccn2)CC1)c1ccccn1 | 11.3 |
| C[C@H](CO)N1C[C@H](C)[C@H](CN(C)C(=O)Nc2ccc(C(F)(F)F)cc2)OCCCC[C@H](C)Oc2ccc(NC(=O)Nc3ccc(F)cc3)cc2C1=O | 48.2 |
| C/C(=N\NC(=S)N1CC2CCC(CC2)C1)c1cnccn1 | 7.95 |
| Cc1c(NC(=O)c2cccc(NC(=O)COc3ccccc3C#N)c2)c(=O)n(-c2ccccc2)n1C | 24.4 |
| S=C(NCc1ccccn1)N/N=C/c1ccccn1 | 29.6 |
| C/C=C/C/C=C/CCC(=O)[C@H]1O[C@H]1C(N)=O | 18.3 |
| C/C(=N\NC(=S)N1CCCCC1)c1cccc(C)n1 | 0.785 |
| C[C@@H]1CN([C@@H](C)CO)C(=O)c2cc(NC(=O)Nc3ccc(C(F)(F)F)cc3)ccc2O[C@@H](C)CCCCO[C@@H]1CN(C)CC1CCCCC1 | 62.9 |
| Cc1ccnc(NC(=O)c2ccc(C(=O)c3ccccc3)cc2)c1 | 72 |
| Fc1ccc2c(c1)c1nnc(SCCN3CCOCC3)nc1n2Cc1ccccc1 | 16.9 |

System: not listed separately
Experiment: as above
Details: HEK293T viability, CellTiter-Glo ATP luminescence, 48 h; at 10 µM (top of the series)

| Compound | activity change, negative = cytotoxicity |
| --- | --- |
| C/C(=N\NC(=S)N1CC2CCC(CC2)C1)c1ccncn1 | 18.8% (inactive) |

Same assay, conditions: HEK293T viability, CellTiter-Glo ATP luminescence, 48 h; at 15 µM (top of the series)

| Compound | activity change, negative = cytotoxicity |
| --- | --- |
| C=C1C[C@]23C[C@@]1(O)CC[C@H]2[C@@]12C=C[C@H](O)[C@@](C)(C(=O)O1)[C@H]2[C@@H]3C(=O)O | 15.6% (inactive) |

Same assay, conditions: HEK293T viability, CellTiter-Glo ATP luminescence, 48 h; at 19.5 µM (top of the series)

| Compound | activity change, negative = cytotoxicity |
| --- | --- |
| CSC(=S)N/N=C(\C)c1cccc(C)n1 | 17.8% (inactive) |
| S=C(N/N=C(\c1ccccc1)c1ccccn1)N(Cc1ccccn1)Cc1ccccn1 | 8.82% (inactive) |
| C/C(=N\NC(=S)Nc1cccc(C)c1)c1ccccn1 | -10.2% (inactive) |
| COc1ccccc1NC(=S)N/N=C(\C)c1ccccn1 | 3.97% (inactive) |

Same assay, conditions: HEK293T viability, CellTiter-Glo ATP luminescence, 48 h; at 26 µM (top of the series)

| Compound | activity change, negative = cytotoxicity |
| --- | --- |
| c1ccc(-c2cn3c4c(sc3n2)CCCC4)cc1 | 3.96% (inactive) |
| C[C@@H]1CN([C@@H](C)CO)C(=O)c2cc(NC(=O)Nc3ccc4c(c3)OCO4)ccc2O[C@H]1CN(C)CC1CCCCC1 | -4.73% (inactive) |
| C[C@@H]1CCCCO[C@H](CN(C)C(=O)c2ccccc2)[C@H](C)CN([C@@H](C)CO)C(=O)c2cc(NC(=O)Nc3ccc(F)cc3)ccc2O1 | 5.32% (inactive) |
| C[C@@H]1CCCCO[C@@H](CN(C)Cc2ccccc2)[C@H](C)CN([C@H](C)CO)C(=O)c2cc(NC(=O)Nc3ccc4c(c3)OCO4)ccc2O1 | 1.15% (inactive) |
| O=C(CCc1ccccc1)NC(c1cccs1)c1cc(Cl)c2cccnc2c1O (centres undefined) | 6.13% (inactive) |
| Cc1cc(NC(=O)c2ccc3c(c2)OCCO3)no1 | 6.92% (inactive) |
| O=C(Nc1cc(C(F)(F)F)cc(C(F)(F)F)c1)Nc1cnn(-c2ccc([N+](=O)[O-])cc2)c1C(F)(F)F | 5.06% (inactive) |
| C[C@@H]1CCCCO[C@H](CN(C)CC2CCCCC2)[C@H](C)CN([C@@H](C)CO)C(=O)c2cc(NC(=O)NC3CCCCC3)ccc2O1 | 4.75% (inactive) |
| COc1ccc2nc(Nc3nc(C)c(CCC(C)C)c(=O)[nH]3)nc(C)c2c1 | 4.99% (inactive) |
| CC12CCC3C(CC=C4CC(O)CCC43CO)C1CCC2OC(=O)c1ccccc1 (centres undefined) | -2.56% (inactive) |
| Cc1ccc(NC(=O)C2CCN(S(=O)(=O)c3ccc4c(c3)NC(=O)C(C)S4)CC2)cc1Cl (centres undefined) | 44.9% (inactive) |
| Cc1ccc(S(=O)(=O)NC(CC(C)C)C(=O)NCC(c2ccco2)N2CCCCC2)cc1 (centres undefined) | 2.47% (inactive) |
| C=CCN1Cc2ccccc2[C@@H]2OC(c3ccc(OCCCO)cc3)=N[C@]2(CCC(=O)OC(C)(C)C)C1=O | 6.61% (inactive) |
| C[C@@H]1CCCCO[C@H](CN(C)C(=O)NC2CCCCC2)[C@H](C)CN([C@@H](C)CO)C(=O)c2cc(NC(=O)C3CCCCC3)ccc2O1 | 3.97% (inactive) |
| COc1ccc(-c2cc3nc4n(c(=O)c3s2)CCC4)cc1 | 3.13% (inactive) |
| Cc1ccc(S(=O)(=O)Nc2ccc3c(c2)C(=O)N([C@@H](C)CO)C[C@H](C)[C@@H](CN(C)C(=O)CCC(F)(F)F)OCCCC[C@H](C)O3)cc1 | 0.533% (inactive) |
| CSc1nc(-c2ccc(C)cc2)nc(C(Cl)Cl)n1 | 1.77% (inactive) |
| CNC[C@@H]1Oc2ccc(NS(=O)(=O)c3cn(C)cn3)cc2CC(=O)N([C@H](C)CO)C[C@@H]1C | -4.73% (inactive) |
| COc1cccc(/C=N/Nc2ncnc3c2ncn3Cc2ccccc2)c1O | 15.7% (inactive) |
| COc1ccc2[nH]c(C(=O)N/N=C/c3ccc(O)cc3O)cc2c1 | 3.87% (inactive) |

| Compound | activity change, negative = cytotoxicity |
| --- | --- |
| COc1ccccc1[C@]1(C)ON(c2ccccc2C(F)(F)F)C1=O | 21.8% (inactive) |
| O=C1/C(=C/c2ccncc2)SC(=S)N1Cc1ccccc1 | 7.62% (inactive) |
| CCc1ccc(/C=C/C(=O)C2C(=O)c3ccccc3C2=O)cc1 | 1.92% (inactive) |
| CCn1c2ccccc2c2cc(/C=N/n3cnnc3)ccc21 | 12.2% (inactive) |
| CC1CN(C(=O)CSc2nnc3c4ccccc4n(Cc4cccc(Cl)c4)c3n2)CCN1C(=O)c1ccccc1F (centres undefined) | 19.4% (inactive) |
| c1ccc(Cn2c3ccccc3c3nnc(SCCN4CCCCC4)nc32)cc1 | -15% (inactive) |
| O=C(CSc1nnc2c3ccccc3n(Cc3ccccc3)c2n1)NCc1ccco1 | -2.78% (inactive) |
| Oc1cccc(C(Nc2nccs2)c2ccc3cccnc3c2O)c1 (centres undefined) | 4.52% (inactive) |
| CC1=C(C(=O)OCc2ccc3c(c2)OCO3)C(c2ccc(F)cc2)NC(=O)N1 (centres undefined) | 1.04% (inactive) |
| COc1ccc(-c2csc3ncnc(NCCN4CCOCC4)c23)cc1 | 7.09% (inactive) |
| C[C@@H]1CN([C@@H](C)CO)C(=O)c2cc(NC(=O)Nc3ccc(C(F)(F)F)cc3)ccc2O[C@@H](C)CCCCO[C@H]1CN(C)Cc1ccc(C(F)(F)F)cc1 | -3.84% (inactive) |
| C[C@@H]1CCCCO[C@H](CN(C)C(=O)CCC(F)(F)F)[C@H](C)CN([C@@H](C)CO)C(=O)c2cc(NC(=O)CCC(F)(F)F)ccc2O1 | -7.41% (inactive) |
| C[C@@H]1CCCCO[C@H](CN(C)S(=O)(=O)c2ccccc2)[C@@H](C)CN([C@@H](C)CO)C(=O)c2cc(N(C)C)ccc2O1 | 16.8% (inactive) |
| O=c1[nH]c(Nc2nc3ccccc3o2)nc2c1CCCC2 | -4.82% (inactive) |
| COc1ccc(C(=O)Nc2ccc3[nH]ccc3c2)cc1 | 12.8% (inactive) |
| CCc1ccc(/C=C2\SC(=S)N(CCCC(=O)Nc3ccccn3)C2=O)cc1 | 1.67% (inactive) |
| CC(=O)Nc1nc(C)c(-c2csc(Nc3ccc(O)cc3)n2)s1 | 2.53% (inactive) |
| C[C@H](CO)N1C[C@H](C)[C@@H](CN(C)CC2CC2)OCCCC[C@H](C)Oc2ccc(NC(=O)Nc3cccc4ccccc34)cc2C1=O | 33.4% (inactive) |
| CCN1CCN(C(c2cccnc2)c2cc(Cl)c3cccnc3c2O)CC1 (centres undefined) | 14% (inactive) |
